Here are results for 31 molecules from patent publication US20250179032A1, “HETEROCYCLIC INHIBITORS OF GLUT9 FOR TREATMENT OF DISEASE” (HORIZON THERAPEUTICS IRELAND DAC, priority 2022, published 2025).

Molecules are shown by their SMILES.

In general, IC50 refers to the concentration that inhibits the measured activity by half.

One assay deals with T1, H. sapiens SLC2A9 variant 2 (GLUT9B) (Homo sapiens, UniProt Q9NRM0).
T1 sequence (Q9NRM0 1-511 isoform Q9NRM0-2): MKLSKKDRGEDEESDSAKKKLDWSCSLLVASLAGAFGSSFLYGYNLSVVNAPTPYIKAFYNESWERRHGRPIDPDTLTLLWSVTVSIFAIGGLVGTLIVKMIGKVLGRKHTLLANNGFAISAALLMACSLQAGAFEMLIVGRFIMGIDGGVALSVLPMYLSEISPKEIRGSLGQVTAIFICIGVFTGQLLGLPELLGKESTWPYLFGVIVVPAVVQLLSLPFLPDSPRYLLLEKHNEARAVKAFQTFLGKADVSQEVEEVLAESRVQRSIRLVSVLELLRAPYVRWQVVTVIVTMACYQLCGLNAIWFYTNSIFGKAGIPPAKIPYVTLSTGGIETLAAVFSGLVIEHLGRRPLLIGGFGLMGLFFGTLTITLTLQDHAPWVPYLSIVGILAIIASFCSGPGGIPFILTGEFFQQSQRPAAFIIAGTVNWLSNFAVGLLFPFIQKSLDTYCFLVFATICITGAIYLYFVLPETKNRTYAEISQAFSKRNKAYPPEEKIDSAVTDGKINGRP
In words: GLUT9 functional assay: uric acid uptake in HEK293T cells, allantoin formation by MS/MS as proxy of GLUT9B inhibition. The note with it: 15 minute assay; HEK293T cells stably expressing GLUT9B and transiently A. oryzae uricase; uric acid 0.3 mM, 37° C.; read-out: 15 min IC50. It counts as cell-based. The gist of the method:
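HEK293T cells stably expressing human GLUT9B and transiently expressing A. oryzae uricase, exposed across a 12-point curve to 0.3 mM uric acid (Km) in sodium gluconate buffer pH 7.4 for 15 or 60 min at 37° C. Allantoin in lysates quantified by RapidFire MS/MS (positive ion) against a matrix-matched standard curve as proxy for uptake.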
With `COCCCc1cnc(-c2cc(F)c3occc3c2)c(N2CCC(C(=O)O)CC2)n1` [Compound 173, 1-(3-(7-Fluorobenzofuran-5-yl)-6-(3-Methoxypropyl)Pyrazin-2-yl)piperidine-4-carboxylic acid], the IC50 is below 0.5 µM.

Take `O=C(O)C1(O)CCN(c2nc(CCCC(F)(F)F)cnc2-c2ccc3occc3c2)CC1` [Compound 174, 1-(3-(benzofuran-5-yl)-6-(4,4,4-trifluorobutyl)pyrazin-2-yl)-4-hydroxypiperidine-4-carboxylic acid]: the IC50 lay in the range of 0.5 to 2 µM.

`COCCCc1cnc(-c2ccc3occc3c2)c(N2CC(C(=O)O)C2)n1` [Compound 175, 1-(3-(benzofuran-5-yl)-6-(3-methoxypropyl)pyrazin-2-yl)azetidine-3-carboxylic acid]: the IC50 was above 2 µM.

Consider `COCCCc1cnc(-c2ccc3c(c2)OCO3)c(N2CC(C(=O)O)C2)n1` [Compound 176, 1-(3-(benzo[d][1,3]dioxol-5-yl)-6-(3-methoxypropyl)pyrazin-2-yl)azetidine-3-carboxylic acid], for which the IC50 is above 2 µM.

Turning to `O=C(O)C1CCN(c2nc(CCCOCC(F)(F)F)cnc2-c2ccc3occc3c2)CC1` [Compound 177, 1-(3-(benzofuran-5-yl)-6-(3-(2,2,2-trifluoroethoxy)propyl)pyrazin-2-yl)piperidine-4-carboxylic acid], the IC50 was below 0.5 µM.

Still in this assay, the particulars now being: 60 minute assay; HEK293T cells stably expressing GLUT9B and transiently A. oryzae uricase; uric acid 0.3 mM, 37° C.; read-out: 60 min IC50.
In the case of `COCCCc1cnc(-c2cc(F)c3occc3c2)c(N2CCC(C(=O)O)CC2)n1` [Compound 173, 1-(3-(7-Fluorobenzofuran-5-yl)-6-(3-Methoxypropyl)Pyrazin-2-yl)piperidine-4-carboxylic acid], the IC50 was below 0.5 µM.

On to `COCCCc1cnc(-c2ccc3occc3c2)c(N2CC(C(=O)O)C2)n1` [Compound 175, 1-(3-(benzofuran-5-yl)-6-(3-methoxypropyl)pyrazin-2-yl)azetidine-3-carboxylic acid], for which the IC50 is above 2 µM.

With `O=C(O)C1CCN(c2nc(CCCOCC(F)(F)F)cnc2-c2ccc3c(c2)OCO3)CC1` [Compound 178, 1-(3-(benzo[d][1,3]dioxol-5-yl)-6-(3-(2,2,2-trifluoroethoxy)propyl)pyrazin-2-yl)piperidine-4-carboxylic acid], the IC50 was in the range of 0.5 to 2 µM.

In the case of `COCCCc1cnc(-c2ccc3oc(COC)cc3c2)c(N2CCC(C(=O)O)CC2)n1` [Compound 179, 1-(3-(2-(methoxymethyl)benzofuran-5-yl)-6-(3-methoxypropyl)pyrazin-2-yl)piperidine-4-carboxylic acid], the IC50 was 0.5 to 2 µM.

Take `COCCCc1cnc(-c2ccc3occc3c2)c(N2CCC3(C(=O)O)CC2C3)n1` [Compound 181, 2-(3-(benzofuran-5-yl)-6-(3-methoxypropyl)pyrazin-2-yl)-2-azabicyclo[3.1.1]heptane-5-carboxylic acid]: the IC50 was below 0.5 µM.

For `COCCCc1cnc(-c2ccc3occc3c2)c(NC23CC(C(=O)O)(C2)C3)n1` [Compound 182, 3-((3-(benzofuran-5-yl)-6-(3-methoxypropyl)pyrazin-2-yl)amino)bicyclo[1.1.1]pentane-1-carboxylic acid], the IC50 is above 2 µM.

In the case of `COCCCc1cnc(-c2cc(F)c3occc3c2)c(N2CCC(C)(C(=O)O)CC2)n1` [Compound 184, 1-(3-(7-fluorobenzofuran-5-yl)-6-(3-methoxypropyl)pyrazin-2-yl)-4-methylpiperidine-4-carboxylic acid], the IC50 was below 0.5 µM.

On to `COCCCc1cnc(-c2cc(F)c3occc3c2)c(N2CCC(O)(C(=O)O)CC2)n1` [Compound 185, 1-(3-(7-fluorobenzofuran-5-yl)-6-(3-methoxypropyl)pyrazin-2-yl)-4-hydroxypiperidine-4-carboxylic acid], for which the IC50 is 0.5 to 2 µM.

Turning to `COCCCc1cnc(-c2cc(F)c3occc3c2)c(N2CCC(C(=O)O)C3CC32)n1` (stereo not drawn) [Compound 186, 2-(3-(7-fluorobenzofuran-5-yl)-6-(3-methoxypropyl)pyrazin-2-yl)-2-azabicyclo[4.1.0]heptane-5-carboxylic acid], the IC50 was below 0.5 µM.

Regarding `COCCCc1cnc(-c2cc(F)c3occc3c2)c(N2CCC(C(=O)O)C(F)(F)C2)n1` (stereo not drawn) [Compound 187, 3,3-difluoro-1-(3-(7-fluorobenzofuran-5-yl)-6-(3-methoxypropyl)pyrazin-2-yl)piperidine-4-carboxylic acid], the IC50 was below 0.5 µM.

With `O=C(O)C1CCN(c2nc(CCCC(F)F)cnc2-c2cc(F)c3occc3c2)CC1` [Compound 188, 1-(6-(4,4-difluorobutyl)-3-(7-fluorobenzofuran-5-yl)pyrazin-2-yl)piperidine-4-carboxylic acid], the IC50 is below 0.5 µM.

As for `COCCCc1cnc(-c2ccc3c(c2)OCO3)c(N2CCC(C(=O)O)CC2)n1` [Compound 189, 1-(3-(benzo[d][1,3]dioxol-5-yl)-6-(3-Methoxypropyl)Pyrazin-2-yl)piperidine-4-carboxylic acid], the IC50 was below 0.5 µM.

Take `COCCCc1cnc(-c2cc(F)c3c(c2)OCO3)c(N2CCC(C(=O)O)CC2)n1` [Compound 190, 1-(3-(7-Fluorobenzo[d][1,3]dioxol-5-yl)-6-(3-Methoxypropyl)Pyrazin-2-yl)piperidine-4-carboxylic acid]: the IC50 is below 0.5 µM.

Turning to `COCCCc1cnc(-c2ccc3c(c2)OCO3)c(N2CCC(C(=O)O)CC2)c1` [Compound 191, 1-(2-(benzo[d][1,3]dioxol-5-yl)-5-(3-Methoxypropyl)Pyridin-3-yl)piperidine-4-carboxylic acid], the IC50 is below 0.5 µM.

In the case of `COCCCc1cnc(-c2cc(F)c3c(c2)CCO3)c(N2CCC(C)(C(=O)O)CC2)n1` [Compound 192, 1-(3-(7-fluoro-2,3-dihydrobenzofuran-5-yl)-6-(3-methoxypropyl)pyrazin-2-yl)-4-methylpiperidine-4-carboxylic acid], the IC50 is below 0.5 µM.

Regarding `COCCCc1cnc(-c2ccc3c[nH]nc3c2)c(N2CCC(C(=O)O)CC2)n1` [Compound 193, 1-(3-(2H-indazol-6-yl)-6-(3-methoxypropyl)pyrazin-2-yl)piperidine-4-carboxylic acid], the IC50 was above 2 µM.

For `COCCCc1cnc(-c2ccnc3[nH]ccc23)c(N2CCC(C(=O)O)CC2)n1` [Compound 194, 1-(6-(3-methoxypropyl)-3-(1H-pyrrolo[2,3-b]pyridin-4-yl)pyrazin-2-yl)piperidine-4-carboxylic acid], the IC50 was above 2 µM.

Regarding `COCCCc1cnc(-c2ccc3ncnn3c2)c(N2CCC(C(=O)O)CC2)n1` [Compound 195, 1-(3-([1,2,4]triazolo[1,5-a]pyridin-6-yl)-6-(3-methoxypropyl)pyrazin-2-yl)piperidine-4-carboxylic acid], the IC50 is above 2 µM.

As for `COCCCc1cnc(-c2cnc3nccn3c2)c(N2CCC(C(=O)O)CC2)n1` [Compound 196, 1-(3-(imidazo[1,2-a]pyrimidin-6-yl)-6-(3-methoxypropyl)pyrazin-2-yl)piperidine-4-carboxylic acid], the IC50 was above 2 µM.

With `COCCCc1cnc(-c2ccc3c(C)[nH]nc3c2)c(N2CCC(C(=O)O)CC2)n1` [Compound 197, 1-(6-(3-methoxypropyl)-3-(3-methyl-2H-indazol-6-yl)pyrazin-2-yl)piperidine-4-carboxylic acid], the IC50 is above 2 µM.

With `COCCCc1cnc(-c2ccc3nn(C)cc3c2)c(N2CCC(C(=O)O)CC2)n1` [Compound 198, 1-(6-(3-methoxypropyl)-3-(2-methyl-2H-indazol-5-yl)pyrazin-2-yl)piperidine-4-carboxylic acid], the IC50 was above 2 µM.

Turning to `COCCCc1cnc(-c2cnc3ccccc3c2)c(N2CCC(C(=O)O)CC2)n1` [Compound 199, 1-(6-(3-methoxypropyl)-3-(quinolin-3-yl)pyrazin-2-yl)piperidine-4-carboxylic acid], the IC50 is above 2 µM.

Turning to `COCCCc1cnc(-c2ccnc3ccccc23)c(N2CCC(C(=O)O)CC2)n1` [Compound 200, 1-(6-(3-methoxypropyl)-3-(quinolin-4-yl)pyrazin-2-yl)piperidine-4-carboxylic acid], the IC50 is above 2 µM.

Take `COCCCc1cnc(-c2cc(C(F)(F)F)nn2C)c(N2CCC(C(=O)O)CC2)n1` [Compound 201, 1-(6-(3-methoxypropyl)-3-(1-methyl-3-(trifluoromethyl)-1H-pyrazol-5-yl)pyrazin-2-yl)piperidine-4-carboxylic acid]: the IC50 is above 2 µM.

For the molecule `COCCCc1cnc(-c2ccnn2CCC(C)C)c(N2CCC(C(=O)O)CC2)n1` [Compound 202, 1-(3-(1-isopentyl-1H-pyrazol-5-yl)-6-(3-methoxypropyl)pyrazin-2-yl)piperidine-4-carboxylic acid], the IC50 was above 2 µM.

Regarding `COCCCc1cnc(-c2cc3sccc3s2)c(N2CCC(C(=O)O)CC2)n1` [Compound 203, 1-(6-(3-methoxypropyl)-3-(thieno[3,2-b]thiophen-2-yl)pyrazin-2-yl)piperidine-4-carboxylic acid], the IC50 is above 2 µM.

On to `COCCCc1cnc(-c2ccc3nsnc3c2)c(N2CCC(C(=O)O)CC2)n1` [Compound 204, 1-(3-(benzo[c][1,2,5]thiadiazol-5-yl)-6-(3-methoxypropyl)pyrazin-2-yl)piperidine-4-carboxylic acid], for which the IC50 is above 2 µM.

Take `COCCCc1cnc(-c2ccc3nccn3c2)c(N2CCC(C(=O)O)CC2)n1` [Compound 205, 1-(3-(imidazo[1,2-a]pyridin-6-yl)-6-(3-methoxypropyl)pyrazin-2-yl)piperidine-4-carboxylic acid]: the IC50 was above 2 µM.
